{
  "source": "patent US20120083476A1",
  "about": "“HETEROARYL-SUBSTITUTED SPIROCYCLIC DIAMINE UREA MODULATORS OF FATTY ACID AMIDE HYDROLASE” (Janssen Pharmaceutica NV, priority 2009, published 2012)",
  "origin": "cited, not measured here",
  "key": {"rats [1]": {"tested_on": "rats", "conditions": "cited from earlier work"}, "rats [2]": {"tested_on": "rats", "conditions": "rat; Kathuria 2003; cited from earlier work"}, "CREAE mice": {"tested_on": "CREAE mice", "conditions": "Baker 2001; cited from earlier work"}, "rats [3]": {"tested_on": "rats", "conditions": "WO 02/087569; cited from earlier work"}, "rats [4]": {"tested_on": "rats", "conditions": "WO 02/087569; cited from earlier work", "remark": "listed apart in the source"}},
  "data": [
    {"smiles": "NC(=O)c1cccc(-c2cccc(OC(=O)NC3CCCCC3)c2)c1", "note": "[URB-597]", "values": [
      {"measurement": "analgesia in hot plate test", "setting": "rats [1]", "result": "analgesic efficacy"},
      {"measurement": "analgesic efficacy in formalin test", "setting": "rats [2]", "result": "analgesic efficacy"}
    ]},
    {"smiles": "CCCCCCCCCCCCCCCCS(=O)(=O)F", "note": "[AM374]", "values": [
      {"measurement": "spasticity in CREAE mice", "setting": "CREAE mice", "result": "significantly reduce spasticity"}
    ]},
    {"smiles": "Cc1nc(-c2ccccc2)c(-c2ccccc2)n1CCCCCCNC(=O)Oc1ccccc1F", "note": "[BMS-1]", "values": [
      {"measurement": "analgesic effect in Hargraves test of acute thermal nociception", "setting": "rats [3]", "result": "analgesic effect"},
      {"measurement": "analgesic effect in Chung spinal nerve ligation model", "setting": "rats [4]", "result": "analgesic effect"}
    ]}
  ]
}
